Experimental data from patent US20050197350A1, “Novel quinoline, tetrahydroquinazoline, and pyrimidine derivatives and methods of treatment related to the use thereof” (TAISHO PHARMACEUTICAL CO., LTD., priority 2003, published 2005).

test system: MCH receptors; test: MCH receptor activity class (method not given); conditions: class by percent of control at 10^-7 M or IC50

| Compound | class |
| --- | --- |
| COc1ccc(CNC[C@H]2CC[C@@H](Nc3nccc(N(C)C)n3)CC2)cc1C [compound 1311] | 2 (Class 2: The value of percent of control at 10^−7 M was from 40% to 60% or the value of IC′50 was from 50 nM to 200 nM.) |
| COc1cc(Br)c(CNC[C@H]2CC[C@@H](Nc3nccc(N(C)C)n3)CC2)cc1OC [compound 1312] | 2 (Class 2: The value of percent of control at 10^−7 M was from 40% to 60% or the value of IC′50 was from 50 nM to 200 nM.) |
| Cc1oc(-c2ccccc2)cc1CNC[C@H]1CC[C@@H](Nc2nccc(N(C)C)n2)CC1 [compound 1313] | 3 (Class 3 The value of percent of control at 10^−7 M was more than 60% or the value of IC50 was more than 200 nM.) |
| COc1ccc(CNC[C@H]2CC[C@@H](Nc3nccc(N(C)C)n3)CC2)cc1OC [compound 1314] | 2 (Class 2: The value of percent of control at 10^−7 M was from 40% to 60% or the value of IC′50 was from 50 nM to 200 nM.) |
| Cc1cc(CNC[C@H]2CC[C@@H](Nc3nccc(N(C)C)n3)CC2)ccc1O [compound 1315] | 3 (Class 3 The value of percent of control at 10^−7 M was more than 60% or the value of IC50 was more than 200 nM.) |
| COc1cc(C)c(CNC[C@H]2CC[C@@H](Nc3nccc(N(C)C)n3)CC2)cc1C [compound 1316] | 2 (Class 2: The value of percent of control at 10^−7 M was from 40% to 60% or the value of IC′50 was from 50 nM to 200 nM.) |
| COc1cccc(CNC[C@H]2CC[C@@H](Nc3nccc(N(C)C)n3)CC2)c1O [compound 1317] | 3 (Class 3 The value of percent of control at 10^−7 M was more than 60% or the value of IC50 was more than 200 nM.) |
| CN(C)c1ccnc(N[C@H]2CC[C@@H](CNCc3cc(C(F)(F)F)cc(Cl)c3F)CC2)n1 [compound 1318] | 3 (Class 3 The value of percent of control at 10^−7 M was more than 60% or the value of IC50 was more than 200 nM.) |
| CN(C)c1ccnc(N[C@H]2CC[C@@H](CNCc3cc(F)cc(C(F)(F)F)c3)CC2)n1 [compound 1319] | 3 (Class 3 The value of percent of control at 10^−7 M was more than 60% or the value of IC50 was more than 200 nM.) |
| COc1cc(CNC[C@H]2CC[C@@H](Nc3nccc(N(C)C)n3)CC2)cc(F)c1O [compound 1320] | 3 (Class 3 The value of percent of control at 10^−7 M was more than 60% or the value of IC50 was more than 200 nM.) |
| COc1cc(F)c(CNC[C@H]2CC[C@@H](Nc3nccc(N(C)C)n3)CC2)cc1OC [compound 1321] | 3 (Class 3 The value of percent of control at 10^−7 M was more than 60% or the value of IC50 was more than 200 nM.) |
| CCc1ccccc1CNC[C@H]1CC[C@@H](Nc2nccc(N(C)C)n2)CC1 [compound 1322] | 3 (Class 3 The value of percent of control at 10^−7 M was more than 60% or the value of IC50 was more than 200 nM.) |
| CN(C)c1ccnc(N[C@H]2CC[C@@H](CNCc3ccc(N(C)CCC#N)cc3)CC2)n1 [compound 1323] | 2 (Class 2: The value of percent of control at 10^−7 M was from 40% to 60% or the value of IC′50 was from 50 nM to 200 nM.) |
| CN(C)c1ccnc(N[C@H]2CC[C@@H](CNCc3ccc(OCc4ccc(Br)cc4)cc3)CC2)n1 [compound 1324] | 2 (Class 2: The value of percent of control at 10^−7 M was from 40% to 60% or the value of IC′50 was from 50 nM to 200 nM.) |
| CCOc1c(Br)cc(Br)cc1CNC[C@H]1CC[C@@H](Nc2nccc(N(C)C)n2)CC1 [compound 1325] | 2 (Class 2: The value of percent of control at 10^−7 M was from 40% to 60% or the value of IC′50 was from 50 nM to 200 nM.) |
| COc1cccc(OC)c1CN[C@H]1CC[C@@H](Nc2nc3c(c(N(C)C)n2)CCCC3)CC1 [compound 1326] | 3 (Class 3 The value of percent of control at 10^−7 M was more than 60% or the value of IC50 was more than 200 nM.) |
| CCOc1ccccc1CN[C@H]1CC[C@@H](Nc2nc3c(c(N(C)C)n2)CCCC3)CC1 [compound 1327] | 3 (Class 3 The value of percent of control at 10^−7 M was more than 60% or the value of IC50 was more than 200 nM.) |
| CN(C)c1nc(N[C@H]2CC[C@@H](NCc3c[nH]c4ccccc34)CC2)nc2c1CCCC2 [compound 1328] | 3 (Class 3 The value of percent of control at 10^−7 M was more than 60% or the value of IC50 was more than 200 nM.) |
| COc1ccc(OC)c(CN[C@H]2CC[C@@H](Nc3nc4c(c(N(C)C)n3)CCCC4)CC2)c1 [compound 1329] | 3 (Class 3 The value of percent of control at 10^−7 M was more than 60% or the value of IC50 was more than 200 nM.) |
| COc1ccc(CN[C@H]2CC[C@@H](Nc3nc4c(c(N(C)C)n3)CCCC4)CC2)c2ccccc12 [compound 1330] | 3 (Class 3 The value of percent of control at 10^−7 M was more than 60% or the value of IC50 was more than 200 nM.) |
| COc1ccc2[nH]cc(CN[C@H]3CC[C@@H](Nc4nc5c(c(N(C)C)n4)CCCC5)CC3)c2c1 [compound 1331] | 1 (Class 1: The value of percent of control at 10^−7 M was less than 40% or the value of IC50 was less than 50 nM.) |
| COc1ccc2ccccc2c1CN[C@H]1CC[C@@H](Nc2nc3c(c(N(C)C)n2)CCCC3)CC1 [compound 1332] | 3 (Class 3 The value of percent of control at 10^−7 M was more than 60% or the value of IC50 was more than 200 nM.) |

| Compound | class |
| --- | --- |
| COc1cc(Br)cc(CN[C@H]2CC[C@@H](Nc3nc4c(c(N(C)C)n3)CCCC4)CC2)c1O [compound 1333] | 3 (Class 3 The value of percent of control at 10^−7 M was more than 60% or the value of IC50 was more than 200 nM.) |
| CN(C)c1nc(N[C@H]2CC[C@@H](NCc3c[nH]c4ccc(Br)cc34)CC2)nc2c1CCCC2 [compound 1334] | 3 (Class 3 The value of percent of control at 10^−7 M was more than 60% or the value of IC50 was more than 200 nM.) |
| COc1ccc(CN[C@H]2CC[C@@H](Nc3nc4c(c(N(C)C)n3)CCCC4)CC2)c(OC)c1 [compound 1335] | 3 (Class 3 The value of percent of control at 10^−7 M was more than 60% or the value of IC50 was more than 200 nM.) |
| COc1ccc(CN[C@H]2CC[C@@H](Nc3nc4c(c(N(C)C)n3)CCCC4)CC2)c(OC)c1OC [compound 1336] | 3 (Class 3 The value of percent of control at 10^−7 M was more than 60% or the value of IC50 was more than 200 nM.) |
| COc1cc(CN[C@H]2CC[C@@H](Nc3nc4c(c(N(C)C)n3)CCCC4)CC2)cc(OC)c1O [compound 1337] | 2 (Class 2: The value of percent of control at 10^−7 M was from 40% to 60% or the value of IC′50 was from 50 nM to 200 nM.) |
| CCOc1cc(CN[C@H]2CC[C@@H](Nc3nc4c(c(N(C)C)n3)CCCC4)CC2)ccc1OC [compound 1338] | 3 (Class 3 The value of percent of control at 10^−7 M was more than 60% or the value of IC50 was more than 200 nM.) |
| CN(C)c1nc(N[C@H]2CC[C@@H](NCc3c[nH]nc3-c3ccc(C(F)(F)F)cc3)CC2)nc2c1CCCC2 [compound 1339] | 3 (Class 3 The value of percent of control at 10^−7 M was more than 60% or the value of IC50 was more than 200 nM.) |
| COc1cc(CN[C@H]2CC[C@@H](Nc3nc4c(c(N(C)C)n3)CCCC4)CC2)cc(OC)c1OC [compound 1340] | 3 (Class 3 The value of percent of control at 10^−7 M was more than 60% or the value of IC50 was more than 200 nM.) |
| COc1cc(CN[C@H]2CC[C@@H](Nc3nc4c(c(N(C)C)n3)CCCC4)CC2)cc(OC)c1 [compound 1342] | 2 (Class 2: The value of percent of control at 10^−7 M was from 40% to 60% or the value of IC′50 was from 50 nM to 200 nM.) |
| COc1cc(CN[C@H]2CC[C@@H](Nc3nc4c(c(N(C)C)n3)CCCC4)CC2)cc(I)c1O [compound 1343] | 2 (Class 2: The value of percent of control at 10^−7 M was from 40% to 60% or the value of IC′50 was from 50 nM to 200 nM.) |
| Cc1cc(CN[C@H]2CC[C@@H](Nc3nc4c(c(N(C)C)n3)CCCC4)CC2)cc(C)c1O [compound 1344] | 3 (Class 3 The value of percent of control at 10^−7 M was more than 60% or the value of IC50 was more than 200 nM.) |
| COc1cccc(CN[C@H]2CC[C@@H](Nc3nc4c(c(N(C)C)n3)CCCC4)CC2)c1 [compound 1345] | 3 (Class 3 The value of percent of control at 10^−7 M was more than 60% or the value of IC50 was more than 200 nM.) |
| CN(C)c1nc(N[C@H]2CC[C@@H](NCc3ccc(F)c(Br)c3)CC2)nc2c1CCCC2 [compound 1346] | 3 (Class 3 The value of percent of control at 10^−7 M was more than 60% or the value of IC50 was more than 200 nM.) |
| CC(CCN[C@H]1CC[C@@H](Nc2nc3c(c(N(C)C)n2)CCCC3)CC1)c1ccccc1 (stereo partly shown) [compound 1347] | 3 (Class 3 The value of percent of control at 10^−7 M was more than 60% or the value of IC50 was more than 200 nM.) |
| Cc1ccc2occ(CN[C@H]3CC[C@@H](Nc4nc5c(c(N(C)C)n4)CCCC5)CC3)c(=O)c2c1 [compound 1348] | 3 (Class 3 The value of percent of control at 10^−7 M was more than 60% or the value of IC50 was more than 200 nM.) |
| Cc1cc2occ(CN[C@H]3CC[C@@H](Nc4nc5c(c(N(C)C)n4)CCCC5)CC3)c(=O)c2cc1Cl [compound 1349] | 3 (Class 3 The value of percent of control at 10^−7 M was more than 60% or the value of IC50 was more than 200 nM.) |
| Cc1cc(C)c2occ(CN[C@H]3CC[C@@H](Nc4nc5c(c(N(C)C)n4)CCCC5)CC3)c(=O)c2c1 [compound 1350] | 2 (Class 2: The value of percent of control at 10^−7 M was from 40% to 60% or the value of IC′50 was from 50 nM to 200 nM.) |
| Cc1cc(CN[C@H]2CC[C@@H](Nc3nc4c(c(N(C)C)n3)CCCC4)CC2)c(C)n1-c1ccccc1 [compound 1351] | 3 (Class 3 The value of percent of control at 10^−7 M was more than 60% or the value of IC50 was more than 200 nM.) |
| CCCCC/C(=C\c1ccccc1)CN[C@H]1CC[C@@H](Nc2nc3c(c(N(C)C)n2)CCCC3)CC1 [compound 1353] | 3 (Class 3 The value of percent of control at 10^−7 M was more than 60% or the value of IC50 was more than 200 nM.) |
| COc1ccccc1/C=C/CN[C@H]1CC[C@@H](Nc2nc3c(c(N(C)C)n2)CCCC3)CC1 [compound 1354] | 3 (Class 3 The value of percent of control at 10^−7 M was more than 60% or the value of IC50 was more than 200 nM.) |
| CN(C)c1nc(N[C@H]2CC[C@@H](NCc3coc4ccc(Cl)cc4c3=O)CC2)nc2c1CCCC2 [compound 1355] | 3 (Class 3 The value of percent of control at 10^−7 M was more than 60% or the value of IC50 was more than 200 nM.) |
